Experimental data as given in ChEMBL document CHEMBL1201862, “PubChem BioAssay data set” (2004).
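Values below derive from 48-hour exposures of cells grown in 96-well plates, with endpoints linearly interpolated between the two concentrations bracketing the appropriate inhibition level. At the GI50, growth is halved.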 Calls of active or inactive are those of the source. Rule as the data show it: active = GI50 up to about 1.1 µM and inactive = higher.

What was measured:
Assay in all cases: NCI tumour cell line growth inhibition, 48 h
OVCAR-8 = system: OVCAR-8
NCI-H23 = system: NCI-H23
TK-10 = system: TK-10
HOP-62 = system: HOP-62
786-0 = system: 786-0
IGROV-1 = system: IGROV-1
LOX IMVI = system: LOX IMVI
M19-MEL = system: M19-MEL
SNB-75 = system: SNB-75
HCC 2998 = system: HCC 2998
UACC-257 = system: UACC-257
EKVX = system: EKVX
SNB-19 = system: SNB-19
SF-295 = system: SF-295
CCRF-CEM = system: CCRF-CEM
U-251 = system: U-251
SK-MEL-5 = system: SK-MEL-5
SR = system: SR

Measured: GI50

CCN(CC)c1ccc(/N=N/c2ccc(-c3nc4cccnc4o3)cc2)cc1
inactive: OVCAR-8 > 100 µM | NCI-H23 > 100 µM | TK-10 > 100 µM | HOP-62 > 100 µM | 786-0 > 100 µM | IGROV-1 > 100 µM | LOX IMVI > 100 µM | M19-MEL > 100 µM | SNB-75 > 100 µM | HCC 2998 55.2 µM | UACC-257 > 100 µM | EKVX > 100 µM | SNB-19 > 100 µM | SF-295 > 100 µM | CCRF-CEM > 100 µM | U-251 > 100 µM | SK-MEL-5 > 100 µM

OCC1CC2CC1C1(C2)OCCO1 (configuration not stated)
inactive: OVCAR-8 > 100 µM | NCI-H23 > 100 µM | TK-10 > 100 µM | HOP-62 > 100 µM | 786-0 > 100 µM | IGROV-1 > 100 µM | LOX IMVI > 100 µM | M19-MEL > 100 µM | SR > 100 µM | SNB-75 > 100 µM | UACC-257 > 100 µM | EKVX > 100 µM | SNB-19 > 100 µM | SF-295 > 100 µM | CCRF-CEM > 100 µM | U-251 > 100 µM | SK-MEL-5 > 100 µM

CCC1(Br)C(=O)NC(=O)N(C2CC(O)C(CO)O2)C1N=[N+]=[N-] (configuration not stated)
inactive: OVCAR-8 > 100 µM | NCI-H23 56.8 µM | TK-10 > 100 µM | HOP-62 > 100 µM | 786-0 > 100 µM | IGROV-1 > 100 µM | LOX IMVI > 100 µM | M19-MEL > 100 µM | SNB-75 > 100 µM | HCC 2998 > 100 µM | UACC-257 83.6 µM | EKVX > 100 µM | SNB-19 > 100 µM | SF-295 > 100 µM | CCRF-CEM 44 µM | U-251 > 100 µM | SK-MEL-5 > 100 µM

Cc1cc(NS(=O)(=O)c2ccc(Nc3c4ccccc4nc4c(C(=O)Nc5ccc(S(=O)(=O)N=C(N)N)cc5)cccc34)cc2)no1
inactive: OVCAR-8 > 100 µM | NCI-H23 > 100 µM | TK-10 > 100 µM | HOP-62 > 100 µM | 786-0 > 100 µM | IGROV-1 > 100 µM | LOX IMVI > 100 µM | M19-MEL > 100 µM | SNB-75 > 100 µM | HCC 2998 > 100 µM | UACC-257 > 100 µM | EKVX > 100 µM | SNB-19 > 100 µM | SF-295 > 100 µM | CCRF-CEM > 100 µM | U-251 > 100 µM | SK-MEL-5 > 100 µM

OCC(O)C(O)c1nn(-c2ccccc2)c2nc3cc(Cl)c(Cl)cc3nc12 (configuration not stated)
inactive: OVCAR-8 20.4 µM | NCI-H23 41.5 µM | TK-10 16.7 µM | HOP-62 47.5 µM | 786-0 18.8 µM | IGROV-1 24.6 µM | LOX IMVI 19.5 µM | M19-MEL 28.8 µM | SNB-75 21.8 µM | HCC 2998 31.9 µM | UACC-257 36.7 µM | EKVX 26.2 µM | SNB-19 48.2 µM | SF-295 31.4 µM | CCRF-CEM 35.2 µM | U-251 29.1 µM | SK-MEL-5 26.4 µM

N#CC(C(=O)CCCC(=O)Nc1ccccc1[N+](=O)[O-])c1c(Cl)cccc1Cl (configuration not stated)
inactive: OVCAR-8 > 100 µM | NCI-H23 > 100 µM | TK-10 > 100 µM | HOP-62 > 100 µM | 786-0 > 100 µM | IGROV-1 > 100 µM | M19-MEL > 100 µM | SR > 100 µM | SNB-75 > 100 µM | HCC 2998 > 100 µM | UACC-257 > 100 µM | EKVX > 100 µM | SNB-19 > 100 µM | SF-295 > 100 µM | CCRF-CEM > 100 µM | U-251 > 100 µM | SK-MEL-5 > 100 µM
